# Reference: the supplement of paper PMC11061612
# Tests used:
# [1] = test system: JHH-7 (Hepatocellular Carcinoma); experiment: Bliss excess, mean over the matrix (fraction); higher = more synergy
# Outline: (§1)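 Cell lines grown in DMEM/F12 or RPMI with 10% FBS were plated in 1536-well plates and held 24 hours at 37°C, 5% CO2 before 72 hours of exposure to two-drug dose matrices, with DMSO typically at 0.2%. CellTiter-Glo 2.0 luminescence gave viability, which was converted to inhibition. Vehicle wells were set to 0 and blank wells to 1. Combination Emax is the second-highest inhibition in the matrix, and Bliss excess is the observed combination effect minus the expected EA + EB − EA·EB, where EA and EB are the single-agent effects.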
# NB7 (Neuroblastoma) [2] = experiment: as above
# Outline: as §1
# [3] = test system: NCI-N87 (Gastric Carcinoma); experiment: as above
# Outline: as §1
# [4] = test system: SNU-C1 (Colorectal Carcinoma); experiment: as above
# Outline: as §1
# [5] = test system: KINGS-1 (Low Grade Glioma); experiment: as above
# Outline: as §1
# [6] = test system: OCUM-1 (Gastric Carcinoma); experiment: as above
# Outline: as §1
# [7] = test system: H-EMC-SS (Chondrosarcoma); experiment: as above
# Outline: as §1
# [8] = test system: LC4-1 (B-Lymphoblastic Leukemia); experiment: as above
# Outline: as §1
# [9] = test system: VMRC-LCD (Lung Adenocarcinoma); experiment: as above
# Outline: as §1
# [10] = test system: TGBC11TKB (Gastric Carcinoma); experiment: as above
# Outline: as §1
# GI-1 (Glioblastoma) [11] = experiment: as above
# Outline: as §1
# [12] = test system: SCC-9 (Oral Cavity Carcinoma); experiment: as above
# Outline: as §1
# EW-3 (Ewing's Sarcoma) [13] = experiment: as above
# Outline: as §1
# [14] = test system: OCUB-M (Breast Carcinoma); experiment: as above
# Outline: as §1
# [15] = test system: HSC-2 (Oral Cavity Carcinoma); experiment: as above
# Outline: as §1
# [16] = test system: JHH-7 (Hepatocellular Carcinoma); experiment: combination Emax (second highest fraction inhibited in the dose matrix, 72 h); higher = more inhibition; extreme values may be limits of the assay
# Outline: as §1
# NB7 (Neuroblastoma) [17] = experiment: as above
# Outline: as §1
# [18] = test system: NCI-N87 (Gastric Carcinoma); experiment: as above
# Outline: as §1
# [19] = test system: SNU-C1 (Colorectal Carcinoma); experiment: as above
# Outline: as §1
# [20] = test system: KINGS-1 (Low Grade Glioma); experiment: as above
# Outline: as §1
# [21] = test system: OCUM-1 (Gastric Carcinoma); experiment: as above
# Outline: as §1
# [22] = test system: H-EMC-SS (Chondrosarcoma); experiment: as above
# Outline: as §1
# [23] = test system: LC4-1 (B-Lymphoblastic Leukemia); experiment: as above
# Outline: as §1
# [24] = test system: VMRC-LCD (Lung Adenocarcinoma); experiment: as above
# Outline: as §1
# [25] = test system: TGBC11TKB (Gastric Carcinoma); experiment: as above
# Outline: as §1
# GI-1 (Glioblastoma) [26] = experiment: as above
# Outline: as §1
# [27] = test system: SCC-9 (Oral Cavity Carcinoma); experiment: as above
# Outline: as §1
# EW-3 (Ewing's Sarcoma) [28] = experiment: as above
# Outline: as §1
# [29] = test system: OCUB-M (Breast Carcinoma); experiment: as above
# Outline: as §1
# [30] = test system: HSC-2 (Oral Cavity Carcinoma); experiment: as above
# Outline: as §1
# 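Wherever Bliss excess, mean over the matrix is given: after 72 h of two-drug dosing.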
Compound,Bliss excess [1],Bliss excess (NB7 (Neuroblastoma) [2]),Bliss excess [3],Bliss excess [4],Bliss excess [5],Bliss excess [6],Bliss excess [7],Bliss excess [8],Bliss excess [9],Bliss excess [10],Bliss excess (GI-1 (Glioblastoma) [11]),Bliss excess [12],Bliss excess (EW-3 (Ewing's Sarcoma) [13]),Bliss excess [14],Bliss excess [15],combination Emax [16],combination Emax (NB7 (Neuroblastoma) [17]),combination Emax [18],combination Emax [19],combination Emax [20],combination Emax [21],combination Emax [22],combination Emax [23],combination Emax [24],combination Emax [25],combination Emax (GI-1 (Glioblastoma) [26]),combination Emax [27],combination Emax (EW-3 (Ewing's Sarcoma) [28]),combination Emax [29],combination Emax [30]
"O=C(c1cc(Cc2n[nH]c(=O)c3ccccc23)ccc1F)N1CCN(C(=O)C2CC2)CC1 [Olaparib] + CN(CC[C@H](CSC1=CC=CC=C1)NC2=C(C=C(C=C2)S(=O)(=O)NC(=O)C3=CC=C(C=C3)N4CCC(CC4)[C@H](C5=CC=CC=C5C6=CC=C(C=C6)Cl)O)S(=O)(=O)C(F)(F)F)CCO [AZD4320] (first compound max 10 µM, 7x7, partner max 1 µM)",-0.0326,-0.0251,-0.0729,-0.055,-0.0792,0.0129,0.0051,0.0153,-0.029,0.0082,0.0255,-0.0395,0.0125,-0.0115,0.0039,0.203,0.393,0.503,0.613,0.646,0.834,0.422,1,0.114,0.42,0.302,0.398,0.904,0.454,0.201
"O=C(c1cc(Cc2n[nH]c(=O)c3ccccc23)ccc1F)N1CCN(C(=O)C2CC2)CC1 [Olaparib] + COc1nnc2ccc(N3CCC(c4ccc(OCCN5CCN(C)C(=O)[C@H]5C)cc4)CC3)nn12 [AZD5153] (first compound max 10 µM, 7x7, partner max 1 µM)",-0.0336,-0.0339,-0.019,-0.0531,-0.0773,-0.0755,-0.0456,-0.115,-0.0707,-0.0543,0.0092,-0.0418,-0.0528,-0.0609,-0.0679,0.237,0.359,0.528,0.524,0.0844,0.488,0.218,0.899,0.35,0.284,0.738,0.288,0.842,0.384,0.563
"O=C(c1cc(Cc2n[nH]c(=O)c3ccccc23)ccc1F)N1CCN(C(=O)C2CC2)CC1 [Olaparib] + Cc1c2c(nn1C)CSCc1cc(n(C)n1)CSc1cc(c3ccccc3c1)OCCCc1c(C(=O)O)n(C)c3c-2c(Cl)ccc13 [AZD5991] (first compound max 10 µM, 7x7, partner max 1 µM)",-0.0457,-0.0154,-0.0285,-0.0155,-0.0514,-0.0497,-0.0401,-0.0181,-0.0349,0.0015,0.0065,-0.0478,-0.0215,-0.0142,-0.0082,0.0758,0.595,0.203,0.362,0.0927,0.0756,0.129,0.955,0.111,0.509,0.51,0.154,0.869,0.924,0.88
"N#Cc1cnc(Nc2cc(NC[C@H]3CNCCO3)c(C(F)(F)F)cn2)cn1 [SRA737] + C=CCn1c(=O)c2cnc(Nc3ccc(N4CCN(C)CC4)cc3)nc2n1-c1cccc(C(C)(C)O)n1 [AZD1775] (first compound max 10 µM, partner max 1 µM)",-0.0263,0.0949,0.0275,0.12,0.0035,0.0537,0.0311,0.0618,-0.0067,0.0401,0.0907,0.0078,0.0086,0.102,0.0573,0.543,0.849,0.828,0.789,0.412,0.53,0.354,0.891,0.778,0.919,0.91,0.326,0.501,0.637,0.584
"N#Cc1cnc(Nc2cc(NC[C@H]3CNCCO3)c(C(F)(F)F)cn2)cn1 [SRA737] + Nc1ccn([C@@H]2O[C@H](CO)[C@@H](O)C2(F)F)c(=O)n1 [Gemcitabine] (first compound max 10 µM, 7x7, partner max 0.3 µM)",0.0691,0.0519,-0.0415,-0.0175,-0.0208,-0.022,-0.0056,0.113,0.0934,0.0075,0.0455,0.0211,-0.0521,0.0085,0.059,0.569,0.765,0.702,0.712,0.29,0.709,0.542,0.976,0.773,0.942,0.916,0.401,0.902,0.951,0.959
"Cc1nc(-c2cn3c(n2)-c2ccc(-c4cnn(C(C)(C)C(N)=O)c4)cc2OCC3)n(C(C)C)n1 [Taselisib] + O=C(Nc1ccc2[nH]nc(-c3ccncc3)c2c1)[C@@H]1CCN(CC(=O)N2CCN(c3ccc(-c4ncccn4)cc3)CC2)C1 [SCH772984] (first compound max 10 µM, 7x7, partner max 5 µM)",0.0389,-0.0014,0.0215,0.108,0.139,0.016,0.156,0.0661,-0.0342,0.177,0.111,0.151,0.0884,0.0341,0.0341,0.526,0.264,0.947,0.932,0.749,0.983,0.927,0.588,0.149,0.765,0.732,0.959,0.608,1,0.994
"CC1(C)CCC(CN2CCN(c3ccc(C(=O)NS(=O)(=O)c4ccc(NCC5CCOCC5)c([N+](=O)[O-])c4)c(Oc4cnc5[nH]ccc5c4)c3)CC2)=C(c2ccc(Cl)cc2)C1 [Venetoclax] + CS(=O)(=O)CCNCc1ccc(-c2ccc3ncnc(Nc4ccc(OCc5cccc(F)c5)c(Cl)c4)c3c2)o1 [Lapatinib] (first compound max 1 µM, 7x7, partner max 10 µM)",-0.0408,-0.0348,-0.0029,-0.0495,-0.0466,-0.0196,-0.0278,0.0233,-0.0139,0.0197,0.0283,-0.036,0.0862,-0.0181,-0.0145,0.335,0.117,0.931,0.0031,0.208,0.178,0.188,1,0.256,0.325,0.284,0.955,0.55,0.518,0.8
